# Assay results published in PMC13114161 (Antibiotics, 2026).
# Where two headings read alike, the source gives them in different places.
# Tests used:
# Microsomal stability = assay type: in vitro ADME, human; conditions: pH 7.4
# Experimental: The metabolic stability of TXA11114 was evaluated in liver microsomes from human (HLM), dog (DLM), rat (RLM), and mouse (MLM). Test compound disappearance over time was monitored by LC-MS/MS. Verapamil (HLM and RLM) and imipramine (DLM and MLM) were used as positive controls. […] Aliquots (70 µL) were transferred to 96-well reaction plates and pre-incubated at 37 °C for 5 min. Reactions were initiated by adding 30 µL NADPH (final concentration 1 mM). Control incubations lacking NADPH were included to assess non-enzymatic degradation. Reactions were terminated at 0, 5, 15, 30, and 60 min by the addition of 100 µL ice-cold acetonitrile containing glipizide as an internal standard.
# P. aeruginosa ATCC 27853 [1] = experiment: Intracellular ATP levels; assay type: cell-based, Pseudomonas aeruginosa; conditions: three hours post-treatment
# Experimental: Further, a deviation from normal membrane function can affect the activity of respiratory components and diminish ATP synthesis. Thus, an indirect approach to assess a drug’s membrane effect is by monitoring cellular ATP levels after treatment. To exclude ATP depletion as a TXA11114 MoA, bacterial ATP levels were evaluated three hours post-treatment. […] Azithromycin was used as a negative control.
# P. aeruginosa intracellular ATP levels were determined as described previously using an ATP determination kit (Invitrogen, Life Technologies, Carlsbad, CA, USA). Bacterial culture strain ATCC 27853 was grown to the mid-log phase (OD600 = 0.7), washed, and resuspended in the same volume of PBSM (1X PBS, 1mM MgCl2). […] After treatment, the cells were lysed in chloroform which was subsequently removed by boiling at 80 °C. The persistent ATP from cell lysate was measured in a 96-well black flat-bottom plate by measuring the luminescence. Luminescence was converted to concentration from standard curve. […] Error bars represent the standard deviation of triplicates.
# [2] = Initial nephrotoxicity screen (BUN, creatinine); assay type: in vivo, Sprague Dawley rats; conditions: male rats, 10 mg/kg IV QD, 24 h after dosing
# Experimental: BUN and CRE analyses were conducted by SRI International (Menlo Park, CA, USA). Adult male Sprague Dawley rats (n = 3 per group) received TXA11114 (10 mg/kg, IV, QD), and blood samples were collected 24 h after dosing.
# P. aeruginosa DA7232 = experiment: Levofloxacin accumulation assay; assay type: cell-based, Pseudomonas aeruginosa; conditions: vs vehicle-treated controls
# Experimental: The bacterial culture samples were treated on ice for 15 min, centrifuged, washed with PBSMG (1X PBS, 1 mM MgCl2, 100 mM glucose) and then resuspended in 1 mL of glycine-HCl buffer (pH 3.0) overnight for cell lysis, followed by centrifugation. The fluorescence of 100 µL of supernatant was read at 490 nm following a 355 nm excitation in a SpectraMax iD5 spectrophotometer (Molecular Devices, San Jose, CA, USA).
# P. aeruginosa ATCC 27853 [3] = experiment: Time-kill study; assay type: cell-based, Pseudomonas aeruginosa; conditions: levofloxacin 1X-MIC + TXA11114
# Experimental: (§1) Time-kill studies were carried out as described previously with the following changes.
# P. aeruginosa AR-0232 = experiment: Time-kill study; assay type: cell-based, Pseudomonas aeruginosa; conditions: levofloxacin 1X-MIC + TXA11114, by 24 h
# Experimental: as §1
# in vitro = assay type: cell-based; conditions: human
# Experimental: The cytotoxicity of TXA11114 was evaluated in HEK293T and A549 cell lines using the CellTiter-Glo™ assay (Promega, Madison, WI, USA). HEK293T cells (human embryonic kidney cells transformed with sheared adenovirus 5 DNA and expressing SV40 large T antigen) and A549 cells (human alveolar basal epithelial adenocarcinoma cell line; hypotriploid with a modal chromosome number of 66) were obtained from Sai Life Sciences Ltd. (Hyderabad, India). These cell lines are well-characterized and consistent with commonly used reference lines (e.g., A549, ATCC CCL-185).
# TXA11114 was tested in a dose–response format with a top concentration of 20 µM using 2-fold serial dilutions in triplicate. Doxorubicin and staurosporine were included as reference controls. Cells (1200 cells/well in 27 µL complete medium) were seeded into 384-well plates and incubated overnight at 37 °C with 5% CO2. The following day, cells were treated with 3 µL of 10× serially diluted compounds. After a 24 h incubation, CellTiter-Glo reagent was added, and plates were gently shaken for 15–20 min at room temperature. Luminescence was measured using an EnVision multimode plate reader (PerkinElmer, Thane, India).
# P. aeruginosa ATCC 27853 [4] = experiment: Membrane polarization assay DiOC2(3); assay type: cell-based, Pseudomonas aeruginosa
# Experimental: RND efflux pumps require an intact proton motive force across the inner membrane to mediate drug efflux. Accordingly, collapse of the membrane potential could indirectly disable efflux activity and result in apparent antibiotic potentiation. To determine whether TXA11114 dissipates the membrane potential of P. aeruginosa, membrane polarization was assessed using the fluorescent probe 3,3′-diethyloxacarbocyanine iodide (DiOC2(3)). DiOC2(3) accumulates in cells with polarized membranes, undergoing a concentration-dependent shift from green to red fluorescence due to dye stacking; membrane depolarization prevents this shift. […] CCCP and azithromycin were included as positive and negative controls, respectively. […] This discrepancy likely reflects a methodological limitation of the DiOC2(3) assay in Gram-negative bacteria. Specifically, EDTA treatment is required to transiently permeabilize the outer membrane to permit DiOC2(3) access to the cytoplasmic membrane (see Methods). While necessary for probe uptake, EDTA can sensitize cells to secondary perturbations and may exaggerate subtle fluorescence changes at supraphysiological compound concentrations.
# P. aeruginosa membrane polarization assays were conducted as described previously using strain ATCC 27853. Briefly, mid-exponential phase (OD600 of 0.5) P. aeruginosa was pelleted by centrifugation at 3000× g for 10 min at room temperature. Cells were then resuspended in 1× PBS, treated with 10 mM EDTA for 5 min and then centrifuged at 300× g for 10 min to remove EDTA. EDTA-treated cells were pelleted and resuspended to an OD600 of 1.0 in assay resuspension buffer. A 6 mM DiOC2(3) stock in DMSO was added to cells for a final concentration of 30 µM. DiOC2(3)-loaded cells were then added to a 96-well black bottom microplate for a final volume of 200 µL. […] After 15 min incubation at 37 °C in dark, DiOC2(3) fluorescence was recorded using the SpectraMax iD5 spectrophotometer (Molecular Devices, San Jose, CA, USA) using 450 nm excitation. Red fluorescence intensity was recorded at 670 nm emission.
# P. aeruginosa = system: P. aeruginosa; set-up: method as in PMID 35052908, PMID 35740123; conditions: against P. aeruginosa; cited from earlier work
SMILES,"half-life at 1 µM (Microsomal stability; human, liver microsomes, read-out: Microsome Stability t1/2) [h]","half-life at 1 µM (Microsomal stability; human and rat liver microsomes, read-out: Microsomal stability half-life) [h]",Cellular ATP level (P. aeruginosa ATCC 27853 [1]),Blood Urea Nitrogen [2] [mg/dL],Creatinine [2] [mg/dL],Intracellular levofloxacin accumulation (P. aeruginosa DA7232),Reduction in time-kill with levofloxacin (P. aeruginosa ATCC 27853 [3]),Reduction in time-kill with levofloxacin (P. aeruginosa AR-0232) [log10],IC50 at 24 h (in vitro) [µM],Concentrations with modest increase in apparent depolarization (P. aeruginosa ATCC 27853 [4]) [µg/mL],Membrane depolarization (P. aeruginosa ATCC 27853 [4]; 0.01–20 µM),"Lowest concentration enhancing activity of monobactams, fluoroquinolones, sulfonamides and tetracyclines (P. aeruginosa) [µg/mL]"
"NCC(F)C[C@@H](N)CNC(=O)c1cc2ccc(-c3ccc(F)cc3)cc2[nH]1 (stereo partly drawn) [TXA11114, N-((2R)-2,5-diamino-4-fluoropentyl)-6-(4-fluorophenyl)-1H-indole-2-carboxamide]",> 1,> 1,did not result in ATP depletion,15.3,0.22,marked increase in intracellular levofloxacin accumulation,more modest but reproducible reductions,≥ 3,> 20,> 10,did not induce significant membrane depolarization,
NC[C@@H]1CN[C@H](CNC(=O)c2cc3ccc(-c4ccc(F)cc4)cc3[nH]2)C1 [TXA09155],,,,,,,,,,,,6.25
